We go through six substances from article PMC4240668 (PLoS ONE, 2014).

Data set [1] concerns immature dendritic cells (iDC). In words: Cytokine secretion (IL-8, TNF-α) by immature dendritic cells, sandwich ELISA. The following applies: for Secretion of IL-8 and TNF-α by dendritic cells: iDC from CD14+ PBMCs, 100 µg/mL peptide in RPMI + 2% human serum, 24 h, sandwich ELISA, three experiments (Fig. S1). Format: cell-based. Here is the method: Supplementary file pone.0113932.s001.tiff: Figure S1 Effect of P31–43 and P56–68 on cytokine secretion (IL-8, TNF-α) by immature dendritic cells (iDC). iDC were generated from CD14+ PBMCs by a 5-day incubation with 500 U/mL IL-4 and 1000 U/mL GM-CSF in RPMI media with 10% human serum. Then, iDC were incubated with 100 µg/mL P31–43 or P56–68 in RPMI+2% human serum for 24 h. IL-8 (A) and TNF-α (B) secretion in the media were analyzed by a commercially available sandwich ELISA (R&D, Wiesbaden, Germany). Each experiment was performed three times; data are given as mean ± SD; only significant differences are shown as *p<0.05, **p<0.01. (TIFF) Click here for additional data file.
Supplementary file pone.0113932.s002.tiff: Figure S2 Effect of the basal media - after incubation of a Caco-2 monolayer with P31–43 and P56–68 - on cytokine secretion (IL-8, TNF-α) by immature dendritic cells (iDC). iDC were generated from CD14+ PBMCs by 5-day incubation with 500 U/mL IL-4 and 1000 U/mL GM-CSF in RPMI media with 10% human serum. iDC were incubated 24 h with basal media of Caco-2 monolayers after they had been exposed to PF-488 labeled P31–43 and P56–68 on the apical side of the cells. IL-8 (A) and TNF-α (B) secretion in the media was analyzed by sandwich ELISA. Each experiment was performed three times; data are given as mean ± SD. (TIFF) Click here for additional data file.

Data set [2] deals with Caco-2 cells (brush border membrane peptidases APN, CPP, DPP IV).
Experimental: (§1) Cells were pre-incubated with transport medium (Hank's Balanced Salt Solution (HBSS) with Ca^2+, Mg^2+ and glucose) (Invitrogen) (200 µl in the apical, 900 µl in the basal compartment of the transwell system) for 30 min at 37°C. Methyl-β-cyclodextrin (MβCD; Sigma-Aldrich, Munich, Germany; 2 mmol/L) was added to the apical compartment to inhibit endocytosis. Then, PF–488 labeled GP dissolved in 100 µl transport medium were added on the apical side of the cells at a total concentration of 32 µmol/L or 145 µmol/L. Cells were incubated at 37°C for 3 or 24 h. Thereafter, media from both compartments (apical and basal) were removed to be further analyzed by fluorescence spectroscopy and MALDI–TOF–MS; cell inserts were prepared for flow cytometry and confocal laser scanning microscopy.
(§2) For mass spectrometric analyses peptides were concentrated and desalted using C18 ZipTips (Millipore). MALDI–TOF–MS analysis of the apical and basal cell culture media was performed using a Bruker Ultraflex I instrument (Bruker Daltonics, Bremen, Germany) with 2,5-dihydroxybenzoic acid (DHB)/methylenbisphosphonic acid as matrix. For calibration an external standard peptide mixture (Bruker Daltonics) was used. MS-spectra were processed by the software FlexAnalysis (version 3.0, Bruker Daltonics). The peptide sequences of P56–68 and P31–43 as well as fragments of these peptides were deduced from the detected molecular mass considering the H^+, Na^+ and K^+ adducts. Masses were assigned to peptides allegeable to cleavage of GP. Detected GP were quantified by calculating the relative area under the curve (AUC). The values of three independent experiments are given as mean values.
The nature of data set [3]: apical medium (HBSS transport medium) of differentiated Caco-2 monolayer in transwell. Conditions: human, 37°C, up to 24 h.
Data set [4] can be described thus: basal medium (HBSS transport medium) of Caco-2 monolayer after apical peptide addition. The following applies: human, 37°C, up to 24 h.
A short description of data set [5]: basal medium of differentiated Caco-2 monolayer (peptide added apically) in transport medium (HBSS). Conditions: human, 37°C; for fragment found: up to 3 h.
Data set [6] is described as follows: apical medium of differentiated Caco-2 monolayer in transport medium (HBSS with Ca2+, Mg2+ and glucose). Conditions: human, 37°C, up to 24 h.
The test system of data set [7] is Caco-2 cells (brush border membrane peptidases APN, CPP, DPP IV). The data set can be described thus: Digestion of gliadin peptides at the apical side of Caco-2 monolayers, MALDI-TOF-MS relative AUC. Conditions: PF-488 labeled peptide at apical side of Caco-2 monolayer, HBSS, 37°C, mean of three independent experiments.
Experimental: as §1, §2
For data set [8], the system named is differentiated Caco-2 monolayer. The data set can be described thus: Identification of translocated peptides in basal medium of Caco-2 monolayers by MALDI-TOF-MS. The following applies: Caco-2 monolayer incubated apically with 32 µmol/L PF-488 labeled parent peptide, 37°C.
Experimental: as §1, §2
The nature of data set [9]: basal medium of differentiated Caco-2 monolayer with MβCD in the apical compartment. The following applies: human, 37°C, up to 24 h.

Entries after “also recorded” stand apart in the source; their conditions may differ. Like-named read-outs stand apart in the source and are kept apart here. No end group written: not given here.

On to LQLQPFPQPQLPY [P56–68], for which, in [1], the “Secretion of IL-8 and TNF-α by dendritic cells” value is reported as “no effect”. The “C-terminal tyrosine residue cleaved (presumably by carboxypeptidase P)” value in data set [2] was 72%.

In the case of PF-LGQQQPFPPQQPY, the fragment found result in data set [3] is “QQPFPPQQP, minor”; in data set [5], “PF-LGQQQPFPPQQP, 3 h; also recorded: PF-LGQQQP, 3 h; also recorded: PF-LGQQ, 3 h; also recorded: PF-LGQ, 3 h”. Further, the cleaved bond result in data set [4] is “P-Y, 3 h”; in data set [6] it was “P-Y, major, 3 h; also recorded: L-G, 3 h; also recorded: G-Q, 3 h; also recorded: P-F, minor, 3 h”.

In the case of LGQQQPFPPQQPY [P31–43], the “Secretion of IL-8 and TNF-α by dendritic cells” value in [1] was “increased secretion”. Also, the “Cytokine production by iDC with basal culture media of peptide-exposed Caco-2 cells” value in [1] (iDC incubated 24 h with basal media of Caco-2 monolayers exposed apically to PF-488 labeled peptide, ELISA (Fig. S2)) is “did not significantly increase”. In [7] (3 h, MALDI-TOF-MS after C18 ZipTip, relative AUC), the “Peptide remaining in the apical compartment still intact” value was 76%. The “C-terminal tyrosine residue cleaved (presumably by carboxypeptidase P)” value in data set [7] (24 h, MALDI-TOF-MS relative AUC) is 83%.

Consider LQLQPFPQPQLP [P56–67], for which the “Peptide detected in basal media after 24 h” value in data set [8] is “found”.

Consider LGQQQPFPPQQP [P31–42], for which the “Peptide detected in basal media after 3 h” value in [8] (3 h) is given as “detected”. In addition, in data set [8], the “Peptide detected in basal media after 24 h” value is recorded as “detected”.

In the case of PF-LQLQPFPQPQLPY, the fragment found entry in data set [9] is given as “PF-LQLQPFPQPQ, 24 h; also recorded: PF-LQLQP, 24 h; also recorded: PF-LQL, 24 h; also recorded: PF-L, 24 h; also recorded: PF-LQLQPFPQPQLP, 24 h”; in data set [3], “QLQPFPQPQLP, minor, 3 h; also recorded: LQPFPQPQLP, minor, 3 h; also recorded: QPFPQPQLP, minor, 3 h”; in data set [5] it was “PF-LQ, 3 h”. Moreover, the cleaved bond result in data set [5] (up to 24 h) is given as “P-Y, major, 24 h”; in data set [6] it was “P-Y, major, 3 h; also recorded: L-Q, minor, 3 h; also recorded: Q-L, minor, 3 h; also recorded: P-F, minor, 3 h”.
